Article PMC3905653, “Characterization of two transketolases encoded on the chromosome and the plasmid pBM19 of the facultative ribulose monophosphate cycle methylotroph Bacillus methanolicus” (BMC Microbiology, 2014)

What was measured:
TKT^P = target: T1, TKT^P (Bacillus methanolicus, UniProt Q6TV44); test: inhibition in coupled assay I; type: biochemical; conditions: effector tested at 1 and 5 mM, which one gave the value is not told; R5-P and X5-P, pH 7.5, Mn2+
T1 construct: gene tktP; full length, plasmid pBM19 gene; pET16b N-terminal His10 tag cut by factor Xa; E. coli BL21(DE3); 73 kDa, homotetramer 280 kDa

TKT^C = target: T2, TKT^C (Bacillus methanolicus, UniProt I3DZN5); test: inhibition in coupled assay I; type: biochemical; conditions: effector tested at 1 and 5 mM, which one gave the value is not told; R5-P and X5-P, pH 7.5, Mn2+
T2 construct: gene tktC; full length, chromosomal gene; pET16b N-terminal His10 tag cut by factor Xa; E. coli BL21(DE3); 73 kDa, homotetramer 280 kDa; primers tktC encode start TTG-TTT-GAT-AAA-ATT-GAC-CAT (MFDKIDH) and C-terminal ALLKQ
T2 sequence (I3DZN5 entry or part of it): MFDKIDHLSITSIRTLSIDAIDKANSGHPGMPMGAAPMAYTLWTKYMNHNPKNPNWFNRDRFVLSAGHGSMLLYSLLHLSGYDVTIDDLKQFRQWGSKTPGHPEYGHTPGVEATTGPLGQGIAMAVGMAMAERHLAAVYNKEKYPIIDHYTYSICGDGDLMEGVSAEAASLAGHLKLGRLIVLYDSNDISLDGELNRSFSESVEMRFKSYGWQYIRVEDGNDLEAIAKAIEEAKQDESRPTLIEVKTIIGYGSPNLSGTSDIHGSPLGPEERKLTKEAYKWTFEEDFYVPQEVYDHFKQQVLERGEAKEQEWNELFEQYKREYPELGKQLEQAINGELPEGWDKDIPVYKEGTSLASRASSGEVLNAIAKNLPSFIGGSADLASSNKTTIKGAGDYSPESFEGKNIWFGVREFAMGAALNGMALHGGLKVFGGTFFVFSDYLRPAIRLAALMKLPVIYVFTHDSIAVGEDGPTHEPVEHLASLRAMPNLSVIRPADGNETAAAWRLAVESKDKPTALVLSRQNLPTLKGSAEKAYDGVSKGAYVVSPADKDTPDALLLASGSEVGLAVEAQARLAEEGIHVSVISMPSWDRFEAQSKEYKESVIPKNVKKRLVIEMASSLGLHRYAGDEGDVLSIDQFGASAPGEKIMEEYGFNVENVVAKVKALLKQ

T1 sequence (Q6TV44 entry or part of it): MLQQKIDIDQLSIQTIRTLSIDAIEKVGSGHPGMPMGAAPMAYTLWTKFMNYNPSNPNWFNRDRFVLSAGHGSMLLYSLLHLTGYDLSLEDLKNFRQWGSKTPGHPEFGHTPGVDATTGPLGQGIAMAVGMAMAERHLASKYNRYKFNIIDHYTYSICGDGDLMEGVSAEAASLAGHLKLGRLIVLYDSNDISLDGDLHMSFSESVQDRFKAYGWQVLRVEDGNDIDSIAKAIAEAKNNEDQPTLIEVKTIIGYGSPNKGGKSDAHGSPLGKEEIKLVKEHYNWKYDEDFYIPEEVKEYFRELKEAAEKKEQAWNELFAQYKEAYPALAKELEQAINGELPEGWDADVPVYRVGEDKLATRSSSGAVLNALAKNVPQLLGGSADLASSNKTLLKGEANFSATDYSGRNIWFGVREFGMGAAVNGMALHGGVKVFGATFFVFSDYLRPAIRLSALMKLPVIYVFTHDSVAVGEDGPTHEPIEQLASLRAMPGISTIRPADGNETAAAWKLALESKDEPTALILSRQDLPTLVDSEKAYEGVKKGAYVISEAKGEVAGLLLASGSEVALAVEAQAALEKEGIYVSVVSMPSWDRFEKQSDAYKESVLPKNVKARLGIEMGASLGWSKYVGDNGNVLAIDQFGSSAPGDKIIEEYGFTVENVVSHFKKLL

Row | Structure (SMILES) | % inhibition (TKT^P) [%] | % inhibition (TKT^C) [%]
1 | Nc1ncnc2c1ncn2[C@@H]1O[C@H](COP(=O)(O)OP(=O)(O)O)[C@@H](O)[C@H]1O [ADP] | 65 | 95
2 | Nc1ncnc2c1ncn2[C@@H]1O[C@H](COP(=O)(O)OP(=O)(O)OP(=O)(O)O)[C@@H](O)[C@H]1O [ATP] | 65 | 75
